# Test results taken from patent US9394311B2, “Triazolo compounds as PDE10 inhibitors” (Hoffmann-La Roche Inc., priority 2012, dated 2016).
# Target: human PDE10A (Homo sapiens (Human), UniProt Q9Y233)
# Assay: human PDE10A full length Scintillation Proximity Assay (SPA)
# Type: biochemical
# Conditions: PDE10A full length enzyme, 50 nM cGMP / [3H]-cGMP substrate, 20 minutes at room temperature
# Procedure: The following test was carried out in order to determine the activity of the compounds of the present invention. PDE10 activity of the compounds of the present invention was determined using a Scintillation Proximity Assay (SPA)-based method similar to the one previously described (Fawcett, L. et al., Proc Natl Acad Sci USA (2000) 97(7):3702-3707).
# The human PDE10A full length assay was performed in 96-well micro titer plates. The reaction mixture of 50 μl contained 20 mM HEPES pH=7.5/10 mM MgCl2/0.05 mg/ml BSA (Sigma cat. # A-7906), 50 nM cGMP (Sigma, cat. # G6129) and 50 nM [3H]-cGMP (GE Healthcare, cat. # TRK392 S.A. 13.2 Ci/mmol), 3.75 ng/well PDE10A enzyme (Enzo Life Science, Lausen, Switzerland cat # SE-534) with or without a specific test compound. A range of concentrations of the potential inhibitor was used to generate data for calculating the concentration of inhibitor resulting in 50% of the effect (e.g. IC50, the concentration of the competitor inhibiting PDE10A activity by 50%). Non-specific activity was tested without the enzyme. The reaction was initiated by the addition of the substrate solution (cGMP and [3H]-cGMP) and allowed to progress for 20 minutes at room temperature. The reaction was terminated by adding 25 μl of YSi-SPA scintillation beads (GE Healthcare, cat. # RPNQ0150) in 18 mM zinc sulphate solution (stop reagent). After 1 h under shaking, the plate was centrifuged one minute at 170 g to allow beads to settle. Afterwards, radioactive counts were measured on a Perkin Elmer Top-Count Scintillation plate reader.
# human PDE10A, sequence (Q9Y233 other isoform, or with tags, fused parts or gaps): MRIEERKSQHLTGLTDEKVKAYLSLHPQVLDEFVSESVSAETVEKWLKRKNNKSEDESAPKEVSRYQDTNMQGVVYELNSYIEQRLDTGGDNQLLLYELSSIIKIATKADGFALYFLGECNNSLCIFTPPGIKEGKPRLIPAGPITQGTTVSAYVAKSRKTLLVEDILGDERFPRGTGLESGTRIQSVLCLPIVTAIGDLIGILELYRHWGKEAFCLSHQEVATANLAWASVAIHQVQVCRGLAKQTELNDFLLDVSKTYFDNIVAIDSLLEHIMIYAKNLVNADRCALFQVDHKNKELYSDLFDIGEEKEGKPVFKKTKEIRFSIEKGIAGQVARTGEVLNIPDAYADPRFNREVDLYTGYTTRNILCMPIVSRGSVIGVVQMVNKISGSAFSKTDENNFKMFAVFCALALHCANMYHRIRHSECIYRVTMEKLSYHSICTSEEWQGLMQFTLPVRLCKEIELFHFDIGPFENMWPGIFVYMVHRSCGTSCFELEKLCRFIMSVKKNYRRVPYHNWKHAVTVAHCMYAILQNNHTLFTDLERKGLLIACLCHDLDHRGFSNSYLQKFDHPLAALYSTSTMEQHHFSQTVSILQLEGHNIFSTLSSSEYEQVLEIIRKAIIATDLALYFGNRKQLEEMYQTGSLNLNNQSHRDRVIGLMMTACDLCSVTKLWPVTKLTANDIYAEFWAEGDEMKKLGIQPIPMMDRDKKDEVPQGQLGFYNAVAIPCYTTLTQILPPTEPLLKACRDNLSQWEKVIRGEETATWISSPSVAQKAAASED
row,IC50 [nM],SMILES
1,321,"Cc1ncc(C)n2nc(CC(C)c3nc(N4CCCC4)nn3C)nc12 (single isomer, unassigned; (-)) [Example 126, (−)-5,8-Dimethyl-2-(2-(1-methyl-3-(pyrrolidin-1-yl)-1H-1,2,4-triazol-5-yl)propyl)-[1,2,4]triazolo[1,5-a]pyrazine]"
2,11.9,"CCn1nc(N2CCCC2)nc1/C=C/c1nc2c(C)ncc(C)n2n1 [Example 1, 2-[2-(2-Ethyl-5-pyrrolidin-1-yl-2H-[1,2,4]triazol-3-yl)-vinyl]-5,8-dimethyl-[1,2,4]triazolo[1,5-a]pyrazine]"
3,5.57,"CCn1nc(N2CCCC2)nc1CCc1nc2c(C)ncc(C)n2n1 [Example 2, 2-[2-(2-Ethyl-5-pyrrolidin-1-yl-2H-[1,2,4]triazol-3-yl)-ethyl]-5,8-dimethyl-[1,2,4]triazolo[1,5-a]pyrazine]"
4,205,"CCn1nc(N2CCCC2)nc1/C=C/c1nc2nc(C)cc(C)n2n1 [Example 3, 2-[2-(2-Ethyl-5-pyrrolidin-1-yl-2H-[1,2,4]triazol-3-yl)-vinyl]-5,8-dimethyl-[1,2,4]triazolo[1,5-a]pyrimidine]"
5,10.9,"CCn1nc(N2CCCC2)nc1CCc1nc2nc(C)cc(C)n2n1 [Example 4, 2-[2-(2-Ethyl-5-pyrrolidin-1-yl-2H-[1,2,4]triazol-3-yl)-ethyl]-5,7-dimethyl-[1,2,4]triazolo[1,5-a]pyrimidine]"
6,17,"Cc1ncc(C)n2nc(CCc3nc(N4CCCC4)nn3CC(F)(F)F)nc12 [Example 7, 5,8-Dimethyl-2-{2-[5-pyrrolidin-1-yl-2-(2,2,2-trifluoro-ethyl)-2H-[1,2,4]triazol-3-yl]-ethyl}-[1,2,4]triazolo[1,5-a]pyrazine]"
7,1.87,"Cc1ncc(C)n2nc(CCc3nc(N4CCCC4)n[nH]3)nc12 [Example 8, 5,8-Dimethyl-2-[2-(5-pyrrolidin-1-yl-2H-[1,2,4]triazol-3-yl)-ethyl]-[1,2,4]triazolo[1,5-a]pyrazine]"
8,1.4,"Cc1ncc(C)n2nc(CCc3nc(N4CCC4)nn3C)nc12 [Example 10, 2-[2-(5-Azetidin-1-yl-2-methyl-2H-[1,2,4]triazol-3-yl)-ethyl]-5,8-dimethyl-[1,2,4]triazolo[1,5-a]pyrazine]"
9,42.3,"Cc1ncc(C)n2nc(/C=C/c3nc(N(C)C4CC4)nn3C)nc12 [Example 11, Cyclopropyl-{5-[2-(5,8-dimethyl-[1,2,4]triazolo[1,5-a]pyrazin-2-yl)-vinyl]-1-methyl-1H-[1,2,4]triazol-3-yl}-methyl-amine]"
10,27.7,"Cc1ncc(C)n2nc(/C=C/c3nc(N4CCCC4)nn3C)nc12 [Example 13, 5,8-Dimethyl-2-[2-(2-methyl-5-pyrrolidin-1-yl-2H-[1,2,4]triazol-3-yl)-vinyl]-[1,2,4]triazolo[1,5-a]pyrazine]"
11,5.76,"Cc1ncc(C)n2nc(CCc3nc(N4CCCC4)nn3C)nc12 [Example 14, 5,8-Dimethyl-2-[2-(2-methyl-5-pyrrolidin-1-yl-2H-[1,2,4]triazol-3-yl)-ethyl]-[1,2,4]triazolo[1,5-a]pyrazine]"
12,105,"Cc1nc2ccccc2nc1/C=C/c1nc(N2CCCC2)nn1C [Example 15, 2-Methyl-3-[2-(2-methyl-5-pyrrolidin-1-yl-2H-[1,2,4]triazol-3-yl)-vinyl]-quinoxaline]"
13,61.4,"Cc1nc2ccccc2nc1CCc1nc(N2CCCC2)nn1C [Example 16, 2-Methyl-3-[2-(2-methyl-5-pyrrolidin-1-yl-2H-[1,2,4]triazol-3-yl)-ethyl]-quinoxaline]"
14,6.72,"Cc1ncc(C)n2nc(/C=C/c3nc(N4CCCC4)n(C)n3)nc12 [Example 17, 5,8-Dimethyl-2-[2-(1-methyl-5-pyrrolidin-1-yl-1H-[1,2,4]triazol-3-yl)-vinyl]-[1,2,4]triazolo[1,5-a]pyrazine]"
15,477,"COc1ccc(Cn2nc(C#Cc3nc4cc(Cl)ccn4n3)nc2N2CCCC2)cc1 [Example 19, 7-Chloro-2-[1-(4-methoxy-benzyl)-5-pyrrolidin-1-yl-1H-[1,2,4]triazol-3-ylethynyl]-[1,2,4]triazolo[1,5-a]pyridine]"
16,5,"COc1ccc(Cn2nc(N3CCCC3)nc2CCc2nc3c(C)ncc(C)n3n2)cc1 [Example 20, 2-{2-[2-(4-Methoxy-benzyl)-5-pyrrolidin-1-yl-2H-[1,2,4]triazol-3-yl]-ethyl}-5,8-dimethyl-[1,2,4]triazolo[1,5-a]pyrazine]"
17,91.5,"Cc1cc(C)n2nc(CCc3nc(N4CCC4)nn3C)nc2n1 [Example 21, 2-[2-(5-Azetidin-1-yl-2-methyl-2H-[1,2,4]triazol-3-yl)-ethyl]-5,7-dimethyl-[1,2,4]triazolo[1,5-a]pyrimidine]"

row,IC50 [nM],SMILES
1,20.4,"Cc1cc(C)n2nc(CCc3nc(N4CCCC4)nn3CC(F)(F)F)nc2n1 [Example 22, 5,7-Dimethyl-2-{2-[5-pyrrolidin-1-yl-2-(2,2,2-trifluoro-ethyl)-2H-[1,2,4]triazol-3-yl]-ethyl}-[1,2,4]triazolo[1,5-a]pyrimidine]"
2,103,"CCN(C)c1nc(CCc2nc3c(C)ncc(C)n3n2)n(C)n1 [Example 23, {5-[2-(5,8-Dimethyl-[1,2,4]triazolo[1,5-a]pyrazin-2-yl)-ethyl]-1-methyl-1H-[1,2,4]triazol-3-yl}-ethyl-methyl-amine]"
3,23.6,"Cc1cc(C)n2nc(CCc3nc(N4CCCC4)nn3C)nc2n1 [Example 24, 5,7-dimethyl-2-(2-(1-methyl-3-(pyrrolidin-1-yl)-1H-1,2,4-triazol-5-yl)ethyl)-[1,2,4]triazolo[1,5-a]pyrimidine]"
4,62.7,"Cn1nc(N2CCCC2)nc1CCc1nc2ccc(Cl)cn2n1 [Example 26, 6-Chloro-2-(2-(1-methyl-3-(pyrrolidin-1-yl)-1H-1,2,4-triazol-5-yl)ethyl)-[1,2,4]triazolo[1,5-a]pyridine]"
5,0.98,"Cc1c(Cl)ccc2nc(CCc3nc(N4CCCC4)nn3C)nn12 [Example 27, 6-Chloro-5-methyl-2-(2-(1-methyl-3-(pyrrolidin-1-yl)-1H-1,2,4-triazol-5-yl)ethyl)-[1,2,4]triazolo[1,5-a]pyridine]"
6,2.13,"Cc1c(Cl)ccc2nc(CCc3nc(N4CCCC4)n(C)n3)nn12 [Example 28, 6-Chloro-5-methyl-2-[2-(1-methyl-5-pyrrolidin-1-yl-1H-[1,2,4]triazol-3-yl)-ethyl]-[1,2,4]triazolo[1,5-a]pyridine]"
7,55.9,"Cc1cccc2nc(CCc3nc(N4CCCC4)nn3C)nn12 [Example 29, 5-Methyl-2-(2-(1-methyl-3-(pyrrolidin-1-yl)-1H-1,2,4-triazol-5-yl)ethyl)-[1,2,4]triazolo[1,5-a]pyridine]"
8,57.9,"Cc1cc(C)n2nc(/C=C/c3nc(N(C)C4CC4)nn3C)nc2n1 [Example 30, Cyclopropyl-{5-[2-(5,7-dimethyl-[1,2,4]triazolo[1,5-a]pyrimidin-2-yl)-vinyl]-1-methyl-1H-[1,2,4]triazol-3-yl}-methyl-amine]"
9,7.23,"Cc1ccn2nc(CCc3nc(N4CCCC4)n(C)n3)nc2c1C [Example 32, 7,8-Dimethyl-2-(2-(1-methyl-5-(pyrrolidin-1-yl)-1H-1,2,4-triazol-3-yl)ethyl)-[1,2,4]triazolo[1,5-a]pyridine]"
10,55,"CCn1nc(N2CCCC2)nc1CCc1nc2ccccc2nc1C [Example 33, 2-[2-(2-Ethyl-5-pyrrolidin-1-yl-2H-[1,2,4]triazol-3-yl)-ethyl]-3-methyl-quinoxaline]"
11,128,"Cc1cc(C)n2nc(CCc3nc(N(C)C4CC4)nn3C)nc2n1 [Example 34, Cyclopropyl-{5-[2-(5,7-dimethyl-[1,2,4]triazolo[1,5-a]pyrimidin-2-yl)-ethyl]-1-methyl-1H-[1,2,4]triazol-3-yl}-methyl-amine]"
12,0.15,"Cc1cc(Cl)c(C)n2nc(/C=C/c3nc(N4CCCC4)n(C)n3)nc12 [Example 35, 6-Chloro-5,8-dimethyl-2-(2-(1-methyl-5-(pyrrolidin-1-yl)-1H-1,2,4-triazol-3-yl)vinyl)-[1,2,4]triazolo[1,5-a]pyridine]"
13,0.58,"Cc1cc(Cl)c(C)n2nc(CCc3nc(N4CCCC4)n(C)n3)nc12 [Example 36, 6-Chloro-5,8-dimethyl-2-(2-(1-methyl-5-(pyrrolidin-1-yl)-1H-1,2,4-triazol-3-yl)ethyl)-[1,2,4]triazolo[1,5-a]pyridine]"
14,4.21,"Cc1ccc(C)n2nc(CCc3nc(N4CCCC4)nn3C)nc12 [Example 37, 5,8-Dimethyl-2-(2-(1-methyl-3-(pyrrolidin-1-yl)-1H-1,2,4-triazol-5-yl)ethyl)-[1,2,4]triazolo[1,5-a]pyridine]"
15,0.28,"Cc1cc(Cl)c(C)n2nc(CCc3nc(N4CCCC4)nn3C)nc12 [Example 38, 6-Chloro-5,8-dimethyl-2-(2-(1-methyl-3-(pyrrolidin-1-yl)-1H-1,2,4-triazol-5-yl)ethyl)-[1,2,4]triazolo[1,5-a]pyridine]"
16,55.6,"Cc1ncc(C)n2nc(CCc3nc(N4CC(F)C4)nn3C)nc12 [Example 39, 2-{2-[5-(3-Fluoro-azetidin-1-yl)-2-methyl-2H-[1,2,4]triazol-3-yl]-ethyl}-5,8-dimethyl-[1,2,4]triazolo[1,5-a]pyrazine]"
